Reference: patent EP0354047A2, “Herbicidal method using atrazine” (MAY & BAKER LIMITED, priority 1988, dated 1990)

Assays:
Eleusine indica [1] = assay: Experiment 2: glasshouse experiment, seedlings at 4-leaf stage, percentage phytotoxicity after 19 days; assay type: in vivo
Method: Agricultural surfactant - nonylphenol ethylene oxide condensate containing 9 moles ethylene oxide (in a commercial composition) was added to all spray dilutions to give 0.2% v/v concentration. […] The ED50 values were as follows:- The results were then used to plot an isobole with a "two-sided effect" according to the methods of […] op. cit. The isobole produced, shown hereinafter in Figure 1 was clearly a type III curve ([…]., page 75), characteristic of synergism.

Amaranthus retroflexus = assay: Experiment 3: glasshouse, post-emergence, fresh weight after 19 days, % inhibition of growth; assay type: in vivo; conditions: 2-4 leaves
Method: (§1) A series of experiments was carried out to determine the nature of the biological interaction between atrazine and five compounds of general formula I on a range of weed species. […] The growth stages of the plants at spraying are also presented with the results. Agricultural surfactant (nonyl phenol ethylene oxide condensate containing 9 moles ethylene oxide marketed as 'Agral') was added to all spray dilutions to give 0.2% v/v concentration. […] After 19 days the fresh weight of vegetation in each pot was determined. […] E = […]00003:character} where E, X and Y are percentage inhibition of growth. In addition, the ED50 or ED90 values (the application rates giving 50% or 90% inhibition of growth, respectively) were calculated from the results for the piperidinedione alone and with increasing rates of atrazine.

Bidens pilosa = assay: as above; assay type: in vivo; conditions: 2 leaves
Method: as §1

Brassica kaber = assay: as above; assay type: in vivo; conditions: 2-3 leaves
Method: as §1

Digitaria sanguinalis = assay: as above; assay type: in vivo; conditions: 3 leaves
Method: as §1

Eleusine indica [2] = assay: as above; assay type: in vivo; conditions: 3 leaves
Method: as §1

Sesbania exactata = assay: as above; assay type: in vivo; conditions: 2 leaves
Method: as §1

Solanum nigrum = assay: as above; assay type: in vivo; conditions: 1-2 leaves
Method: as §1

Xanthium strumarium = assay: as above; assay type: in vivo; conditions: 2 leaves
Method: as §1

maize var.Irla = assay: Experiment 5: glasshouse, crop plants at 3 leaf stage, percentage phytotoxicity after 12 days; conditions: for % crop phytotoxicity Maize (3 leaves): Atrazine 0 g/ha
Method: An experiment was carried out to determine the biological interaction between atrazine and Compound 74 on maize. A wide range of dose rates of atrazine i.e. 250, 500, 1000 and 2000 g/ha (in a commercial suspension concentrate formulation containing 500g/l w/v atrazine) and of Compound 74 i.e. 31, 63, 125, 250, 1000 and 2000 g/ha (in a composition according to Example 2 as described hereinafter) were applied in a spray volume of 290litres/ha to four replicate 10cm square plastic plant pots of loam soil containing one maize plant, at the 3 leaf growth stage. Agricultural surfactant ('Agral') was added to the spray dilutions to give 0.2%v/v concentration.
After spraying the pots were arranged in randomised blocks in a glasshouse and watered as necessary. After 12 days the plants were assessed for percentage phytotoxicity (reduction in green area compared with unsprayed plants) (0 = no effect 100 = complete destruction).
E = X + Y […] where E, X and Y are percentage phytotoxicity.
The ED values were then used to plot an isobole according to the method of P.M.L. Tammes op cit. The results of percentage phytotoxicity, the ED₂₀ values calculated from them and the calculated expected value are given in Table 9.

`O=C1CCNC(=O)C1C(=O)c1ccc(C(F)(F)F)cc1[N+](=O)[O-]` (stereo not drawn) [Compound 74, 3-(2-nitro-4-trifluoromethylbenzoyl)piperidine-2,4-dione] gave a percentage phytotoxicity (Eleusine indica [1]; Compound 74 16 g/ha alone) of 13%, a percentage phytotoxicity (Eleusine indica [1]; Compound 74 31 g/ha alone) of 12% and a percentage phytotoxicity (Eleusine indica [1]; Compound 74 63 g/ha alone) of 40%. It also gave a percentage phytotoxicity (Eleusine indica [1]; Compound 74 125 g/ha alone) of 50%, a percentage phytotoxicity (Eleusine indica [1]; Compound 74 250 g/ha alone) of 77% and an ED₅₀ (Eleusine indica [1]; Compound 74 alone, 50% phytotoxicity) of 101 g/ha. For the same compound, the inhibition at 2 g/ha (Amaranthus retroflexus; Amaranthus retroflexus, post-emergence, Compound 74 2 g/ha alone) was 27%, the inhibition at 4 g/ha (Amaranthus retroflexus; Amaranthus retroflexus, post-emergence, Compound 74 4 g/ha alone) was 47% and the inhibition at 8 g/ha (Amaranthus retroflexus; Amaranthus retroflexus, post-emergence, Compound 74 8 g/ha alone) was 69%. It also gave an inhibition at 16 g/ha (Amaranthus retroflexus; Amaranthus retroflexus, post-emergence, Compound 74 16 g/ha alone) of 76%, an inhibition at 31 g/ha (Amaranthus retroflexus; Amaranthus retroflexus, post-emergence, Compound 74 31 g/ha alone) of 86% and an inhibition at 63 g/ha (Amaranthus retroflexus; Amaranthus retroflexus, post-emergence, Compound 74 63 g/ha alone) of 90%. The ED₉₀ (Amaranthus retroflexus; Compound 74 alone) was “ED₉₀(g/ha) 46.43”, the inhibition at 8 g/ha (Bidens pilosa; Bidens pilosa, post-emergence, Compound 74 8 g/ha alone) was 0% and the inhibition at 16 g/ha (Bidens pilosa; Bidens pilosa, post-emergence, Compound 74 16 g/ha alone) was 0%. It also gave an inhibition at 31 g/ha (Bidens pilosa; Bidens pilosa, post-emergence, Compound 74 31 g/ha alone) of 0%, an inhibition at 125 g/ha (Bidens pilosa; Bidens pilosa, post-emergence, Compound 74 125 g/ha alone) of 48% and an inhibition at 163 g/ha (Bidens pilosa; Bidens pilosa, post-emergence, Compound 74 163 g/ha alone) of 15%. For the same compound, the inhibition at 250 g/ha (Bidens pilosa; Bidens pilosa, post-emergence, Compound 74 250 g/ha alone) was 75%, the ED₅₀ (Bidens pilosa; Compound 74 alone) was “ED₅₀(g/ha)141.27” and the ED₅₀ (Brassica kaber; Compound 74 alone) was “ED₅₀(g/ha) 10.3”. It also gave an inhibition at 2 g/ha (Brassica kaber; Mutarda arvensis, post-emergence, Compound 74 2 g/ha alone) of 19%, an inhibition at 4 g/ha (Brassica kaber; Mutarda arvensis, post-emergence, Compound 74 4 g/ha alone) of 20% and an inhibition at 8 g/ha (Brassica kaber; Mutarda arvensis, post-emergence, Compound 74 8 g/ha alone) of 32%. For the same compound, the inhibition at 16 g/ha (Brassica kaber; Mutarda arvensis, post-emergence, Compound 74 16 g/ha alone) was 61%, the inhibition at 31 g/ha (Brassica kaber; Mutarda arvensis, post-emergence, Compound 74 31 g/ha alone) was 72% and the inhibition at 63 g/ha (Brassica kaber; Mutarda arvensis, post-emergence, Compound 74 63 g/ha alone) was 96%. For the same compound, the ED₉₀ (Digitaria sanguinalis; Compound 74 alone) was “ED₉₀ (g/ha) 75.46”, the inhibition at 16 g/ha (Digitaria sanguinalis; Digitaria sanguinalis, post-emergence, Compound 74 16 g/ha alone) was 55% and the inhibition at 31 g/ha (Digitaria sanguinalis; Digitaria sanguinalis, post-emergence, Compound 74 31 g/ha alone) was 75%. It also gave an inhibition at 63 g/ha (Digitaria sanguinalis; Digitaria sanguinalis, post-emergence, Compound 74 63 g/ha alone) of 88%, an inhibition at 125 g/ha (Digitaria sanguinalis; Digitaria sanguinalis, post-emergence, Compound 74 125 g/ha alone) of 96% and an inhibition at 250 g/ha (Digitaria sanguinalis; Digitaria sanguinalis, post-emergence, Compound 74 250 g/ha alone) of 99%. The inhibition at 500 g/ha (Digitaria sanguinalis; Digitaria sanguinalis, post-emergence, Compound 74 500 g/ha alone) was 100%, the ED₅₀ (Eleusine indica [2]; Compound 74 alone) was “ED₅₀ (g/ha) 72.43” and the inhibition at 16 g/ha (Eleusine indica [2]; Eleusine indica, post-emergence, Compound 74 16 g/ha alone) was 0%. It also gave an inhibition at 31 g/ha (Eleusine indica [2]; Eleusine indica, post-emergence, Compound 74 31 g/ha alone) of 26%, an inhibition at 63 g/ha (Eleusine indica [2]; Eleusine indica, post-emergence, Compound 74 63 g/ha alone) of 55% and an inhibition at 125 g/ha (Eleusine indica [2]; Eleusine indica, post-emergence, Compound 74 125 g/ha alone) of 84%. For the same compound, the inhibition at 250 g/ha (Eleusine indica [2]; Eleusine indica, post-emergence, Compound 74 250 g/ha alone) was 96%, the inhibition at 500 g/ha (Eleusine indica [2]; Eleusine indica, post-emergence, Compound 74 500 g/ha alone) was 95% and the ED₉₀ (Sesbania exactata; Compound 74 alone) was “ED₉₀(g/ha)375.45”. The inhibition at 8 g/ha (Sesbania exactata; Sesbania, post-emergence, Compound 74 8 g/ha alone) was 65%, the inhibition at 16 g/ha (Sesbania exactata; Sesbania, post-emergence, Compound 74 16 g/ha alone) was 73% and the inhibition at 31 g/ha (Sesbania exactata; Sesbania, post-emergence, Compound 74 31 g/ha alone) was 61%. The inhibition at 125 g/ha (Sesbania exactata; Sesbania, post-emergence, Compound 74 125 g/ha alone) was 84%, the inhibition at 163 g/ha (Sesbania exactata; Sesbania, post-emergence, Compound 74 163 g/ha alone) was 80% and the inhibition at 250 g/ha (Sesbania exactata; Sesbania, post-emergence, Compound 74 250 g/ha alone) was 79%. For the same compound, the ED₉₀ (Solanum nigrum; Compound 74 alone) was “ED₉₀(g/ha) 41.13”, the inhibition at 2 g/ha (Solanum nigrum; Solanum nigrum, post-emergence, Compound 74 2 g/ha alone) was 15% and the inhibition at 4 g/ha (Solanum nigrum; Solanum nigrum, post-emergence, Compound 74 4 g/ha alone) was 30%. It also gave an inhibition at 8 g/ha (Solanum nigrum; Solanum nigrum, post-emergence, Compound 74 8 g/ha alone) of 39%, an inhibition at 16 g/ha (Solanum nigrum; Solanum nigrum, post-emergence, Compound 74 16 g/ha alone) of 60% and an inhibition at 31 g/ha (Solanum nigrum; Solanum nigrum, post-emergence, Compound 74 31 g/ha alone) of 82%. The inhibition at 63 g/ha (Solanum nigrum; Solanum nigrum, post-emergence, Compound 74 63 g/ha alone) was 94%, the ED₉₀ (Xanthium strumarium; Compound 74 alone) was “ED₉₀(g/ha) 166.99” and the inhibition at 8 g/ha (Xanthium strumarium; Xanthium strumarium, post-emergence, Compound 74 8 g/ha alone) was 55%. For the same compound, the inhibition at 16 g/ha (Xanthium strumarium; Xanthium strumarium, post-emergence, Compound 74 16 g/ha alone) was 45%, the inhibition at 31 g/ha (Xanthium strumarium; Xanthium strumarium, post-emergence, Compound 74 31 g/ha alone) was 74% and the inhibition at 125 g/ha (Xanthium strumarium; Xanthium strumarium, post-emergence, Compound 74 125 g/ha alone) was 86%. For the same compound, the inhibition at 163 g/ha (Xanthium strumarium; Xanthium strumarium, post-emergence, Compound 74 163 g/ha alone) was 79%, the inhibition at 250 g/ha (Xanthium strumarium; Xanthium strumarium, post-emergence, Compound 74 250 g/ha alone) was 92% and the “% crop phytotoxicity Maize (3 leaves)” value (maize var.Irla; Compound 74 63 g/ha) was 1%. For the same compound, the “% crop phytotoxicity Maize (3 leaves)” value (maize var.Irla; Compound 74 125 g/ha) was 3%, the “% crop phytotoxicity Maize (3 leaves)” value (maize var.Irla; Compound 74 250 g/ha) was 6% and the “% crop phytotoxicity Maize (3 leaves)” value (maize var.Irla; Compound 74 500 g/ha) was 10%. The “% crop phytotoxicity Maize (3 leaves)” value (maize var.Irla; Compound 74 1000 g/ha) was 30%, the “% crop phytotoxicity Maize (3 leaves)” value (maize var.Irla; Compound 74 2000 g/ha) was 58% and the ED₂₀ (maize var.Irla; Compound 74 alone) was “ED₂₀(g/ha) 601”.
